Common to all, as to test: growth of human tumour cells (NCI), 48 h
The test system of test [1] is UO-31 renal.
Test [2] concerns SW-620 colon.
For test [3], the system named is ACHN renal.
Test [4] deals with MCF7 breast.
The subject of test [5] is UACC-62 melanoma.
The test system of test [6] is UACC-257 melanoma.
In test [7] the test system is RXF 393 renal.
In test [8] the test system is U251 CNS.
Test [9] concerns TK-10 renal.
Test [10] concerns EKVX NSCLC.
In test [11] the test system is SK-OV-3 ovarian.
Test [12] deals with HT29 colon.
Test [13] has as its system A498 renal.
Test [14] concerns SK-MEL-28 melanoma.
Test [15] concerns OVCAR-4 ovarian.
Test [16] has as its system LOX IMVI melanoma.
Test [17] concerns HCT-116 colon.
Test [18] deals with PC-3 prostate.
Test [19] relates to OVCAR-3 ovarian.
Test [20] relates to MDA-MB-231 breast.

The structures appear in SMILES notation.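 Values below derive from 48-hour exposures of cells grown in 96-well plates, with endpoints linearly interpolated between the two concentrations bracketing the appropriate inhibition level. TGI is the concentration that stops growth completely.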 Some results are limits rather than exact numbers.

For the compound `CN1c2ccccc2C(=O)NC12CCNCC2`, the TGI in test [1], in test [2], in test [3], in [4], in test [5] and in test [6] was > 100 µM each time. Besides, the TGI in test [7], in test [8], in test [9], in test [10], in [11] and in test [12] was > 100 µM throughout. In addition, the TGI in [13], in test [14], in test [15], in [16] and in [17] was > 100 µM throughout.

With `O=C1CC(C(OCc2ccccc2)C(OCc2ccccc2)C(OCc2ccccc2)C(COCc2ccccc2)OCc2ccccc2)CC(=O)N1` (configuration not stated), the TGI in [1], in test [2], in test [3], in test [6], in test [7] and in [8] was > 100 µM in each case. Further, the TGI in [18], in test [9], in test [10], in [12], in test [13] and in [19] was > 100 µM each time. Also, the TGI in [14], in test [15] and in test [16] was > 100 µM throughout.

With `Cc1ccc(SCC(CF)OC(C)n2cnc3c(Cl)nc(N)nc32)cc1` (configuration not stated), the TGI in test [1], in test [2], in test [3], in test [4], in [5] and in test [6] was > 100 µM each time. Moreover, the TGI in test [8], in test [18], in [9], in test [11], in [20] and in test [12] was > 100 µM each time. Moreover, the TGI in [19] is > 100 µM; in test [14], > 100 µM; in [15], 52.6 µM; in [16] it was > 100 µM; in [17] it was > 100 µM.

For the compound `CCCCOC(=O)NC(Nc1ccc(S(=O)(=O)Nc2ncccn2)cc1)(C(F)(F)F)C(F)(F)F`, the TGI in test [1] is 43.6 µM; in test [2] it was > 100 µM; in [3], > 100 µM; in test [5], > 100 µM; in [7], > 100 µM; in [18], > 100 µM. Also, the TGI in [9], in test [10], in [11], in test [20], in test [12] and in test [13] was > 100 µM in each case. The TGI in [19], in [14], in test [15], in [16] and in test [17] was > 100 µM in each case.

`COc1ccc(NS(=O)c2c(C)cc(C)cc2C)cc1` (configuration not stated): the TGI in test [1] was 61.1 µM; in test [2], > 100 µM; in [3] it was > 100 µM; in [4], > 100 µM; in test [5], > 100 µM; in [6] it was > 100 µM. For the same compound, the TGI in test [8], in test [9], in [10], in test [20], in test [12] and in test [19] was > 100 µM in each case. Besides, the TGI in test [14], in test [15], in test [16] and in test [17] was > 100 µM each time.

For the compound `CCc1ccc(Nc2cc(=O)n(C)c(SCc3ccccc3)n2)cc1`, the TGI in [1], in test [2], in test [3], in test [4], in test [5] and in [6] was > 100 µM each time. In addition, the TGI in [7] was > 100 µM; in [9], > 100 µM; in test [10], > 100 µM; in test [11], > 100 µM; in [20] it was > 100 µM; in test [12], 60.4 µM. In addition, the TGI in test [13] was 29.7 µM; in test [19], > 100 µM; in [16] it was > 100 µM; in test [17] it was 57.1 µM.

On to `CN1C(C)(C)CC(=O)C(Br)C1(C)C` (configuration not stated), for which the TGI in test [1], in test [2], in [3], in test [4], in test [5] and in test [6] was > 100 µM throughout. Moreover, the TGI in test [8], in test [18], in test [9], in test [10], in test [11] and in [12] was > 100 µM in each case. Besides, the TGI in test [19], in [14], in [15] and in test [16] was > 100 µM in each case.

`CC(C)COP(C)(=O)C(N)(C(F)(F)F)C(F)(F)F` (configuration not stated): the TGI in test [1], in test [2], in test [3], in test [4], in test [5] and in test [6] was > 100 µM in each case. For the same compound, the TGI in test [8], in [18], in [9], in test [10], in [11] and in test [20] was > 100 µM throughout. Further, the TGI in [12], in test [19], in test [14], in [15], in [16] and in test [17] was > 100 µM in each case.

The values are drawn from PubChem BioAssay (NCI).
